Results on five molecules are retold here after patent US9527847B2, “Treatment of lupus, fibrotic conditions, and inflammatory myopathies and other disorders using PI3 kinase inhibitors” (INFINITY PHARMACEUTICALS, INC., priority 2012, dated 2016).

In one test the test system is mouse EAE model. In words: Experimental Autoimmune Encephalomyelitis (EAE) model, semi-therapeutic, 28 day. Type of test: in vivo. As to conditions: FTY720 3 mg/kg QD p.o. Here is the method: EAE was induced in 60 mice using Hooke Kit™ MOG35-55/CFA Emulsion PTX (Hooke Laboratories, Lawrence Mass.), catalog number EK-0110, lot number 0104, per manufacturer's recommended protocol, except that pertussis toxin was diluted with phosphate buffered saline to achieve 1.4× and 1.3× solution (starting from the 1.5× solution in the kit). This was done to optimize disease severity for this particular study.
Mice were injected subcutaneously, at two sites in the back, with the emulsion component of the kit (containing MOG35-55). One site of injection was in the area of the upper back, approximately 1 cm caudal of the neck line. The second site was in the area of the lower back, approximately 2 cm cranial of the base of the tail. Injection volume was 0.1 mL at each site. Within 2 hours of the injection of emulsion, and then again 24 hours after the injection of emulsion, the pertussis toxin component of the kit was administered intraperitoneally. Volume of each injection was 0.1 mL.
Vehicle for Group 2 (FTY720) was water and 2% ethanol. Vehicle for all other groups was water, 0.5% CMC (low viscosity), and 0.05% Tween80. Mice were dosed at the same time every day, +/−1 hour. The last day of dosing was Day 27 after immunization.
Readouts were EAE scores and changes in body weight. Mice were scored daily from Day 7 to Day 28, and body weights were measured three times/week (Monday, Wednesday and Friday), starting on Day −1.
EAE was scored on scale 0 to 5: • 0 No obvious changes in motor functions of the mouse in comparison to non-immunized mice. When picked up by the tail, the tail has tension and is erect. Hind legs are usually spread apart. When the mouse is walking, there is no gait or head tilting. • 1 Limp tail. When the mouse is picked up by the tail, instead of being erect, the whole tail drapes over finger. • 2 Limp tail and weakness of hind legs. When mouse is picked up by tail, legs are not spread apart, but held closer together. When the mouse is observed walking, it has a clearly apparent wobbly walk. • 3 Limp tail and complete paralysis of hind legs (most common); or limp tail with paralysis of one front and one hind leg; or all of: severe head tilting, walking only along the edges of the cage, pushing against the cage wall, and spinning when picked up by the tail. • 4 Limp tail, complete hind leg and partial front leg paralysis. Mouse is minimally moving around the cage but appears alert and feeding Usually, euthanasia is recommended after the mouse scores level 4 for 2 days. When the mouse is euthanized because of severe paralysis, score of 5 is entered for that mouse for the rest of the experiment. • 5 Complete hind and complete front leg paralysis, no movement around the cage; or mouse is spontaneously rolling in the cage; or mouse is found dead due to paralysis.
At the end of the study 3 luxol fast blue (LFB) stained sections and 3 H&E sections, from lumbar, thoracic, and cervical spinal cord of all mice in Groups 1, 2, 3, and 6 and the 3 naïve mice were prepared and analyzed.
Inflammatory foci were counted in each H&E stained section. Each group of approximately 20 cells was counted as one focus. Foci larger than 20 cells were counted based on an estimate of how many foci of 20 cells were present.
The demyelination score represents an estimate of demyelinated area for each section as follows. For LFB stained slides, the demyelinated area was estimated based on intensity of blue staining of myelin. For H&E stained sections, demyelinated area was estimated by looking for interruption of normal structure—pallor and vacuolation consistent with edema and demyelination, and dilated axons. • 0—no demyelination (less than 5% demyelinated area) • 1—5 to 20% demyelinated area • 2—20 to 40% demyelinated area • 3—40 to 60% demyelinated area • 4—60 to 80% demyelinated area • 5—80 to 100% demyelinated area.
The number of apoptotic cells in each of the three H&E sections was determined.

Another test addresses T1, PI3K β (Homo sapiens, UniProt P42338).
T1 construct: purchased Upstate
In words: In vitro IC50, PI3K β (Table 3). In kind it is biochemical. Here is the method: (§1) An exemplary system is PI 3-Kinase (human) HTRF™ Assay from Upstate. […] The total reaction volume is approximately 20 μl per well. […] The reaction is stopped by adding 5 μl of Stop Solution per well and then 5 μl of Detection Mix is added per well.

The next test relates to B cell proliferation. In words: B cell proliferation EC50 (Table 3). In kind it is cell-based. To be noted: in vitro.
The target in another test is T2, PI3K γ (Homo sapiens, UniProt P48736).
T2 construct: purchased Sigma
In words: In vitro IC50, PI3K γ (Table 3). In kind it is biochemical. The method, then: as §1

For the next test, the target named is T3, PI3K α (Homo sapiens, UniProt P42336).
T3 construct: purchased Upstate
In words: In vitro IC50, PI3K α (Table 3). Type of test: biochemical. Here is the method: as §1

The next test concerns NZBWF1/J mice. In words: Murine NZB/W F1 lupus model. Type of test: in vivo, mouse. To be noted: 2 mg/kg PO QD, vs vehicle. The source says:
Female NZBWF1/J mice (n=60) that were 8 weeks old on arrival and weighed approximately 35-51 grams (mean 42 g) at enrollment (mouse age approx. 23 weeks) were obtained from The Jackson Laboratory, Bar Harbor, Me. (stock number 100008). Animals were identified by a distinct number of ink marks at the base of the tail delineating animal number. After enrollment, all cages were labeled with protocol number, group number, and animal numbers.
Mice were terminated at age 43 weeks (day 140).
All dose solutions were prepared to deliver in 10 ml/kg (0.3 ml/30 g mouse).
Body weights were measured and recorded prior to study initiation for randomization, on the first day of dosing prior to dosing, and weekly throughout the study. Body weights were also recorded at scheduled termination points and as needed if test subjects appeared to decrease in weight by visual inspection. The animals were observed daily for significant clinical signs, morbidity and mortality.
Urine from each animal was tested weekly (beginning at mouse age 23 weeks) for proteinuria using Clinitech Multistick test strips (Bayer).
At necropsy, animals were anesthetized with isoflorane and bled via cardiac puncture for serum (for clinical chemistry analysis) and plasma (for Anti-dsDNA ELISA and PK). Terminal urine was collected and assessed. Spleens and kidneys (paired) were collected, weighed, and placed in 10% NBF. Serum obtained at necropsy was sent to Antech Diagnostics for analysis. Terminal plasma samples were split with half being used for Anti-dsDNA ELISA and the other half being shipped to the sponsor.
Anti-dsDNA IgG analysis was performed on days 0, 49, 98, and 140 (mouse age 23, 30, 37, and 43 weeks). Anti-dsDNA IgG levels were determined using an Anti-dsDNA IgG ELISA Kit (Alpha Diagnostic, kit #5120, lot #90903K4) following manufacturer's instructions.
Blood samples for clinical chemistry evaluation were collected at termination via cardiac puncture from Isoflurane anesthetized animals into serum separator microtainer tubes. Serum was sent to Antech Diagnostics for analysis.
The following parameters were measured: Albumin (ALB), Albumin: Globulin ratio (A/G), Alkaline phosphatase (ALK), Alanine aminotransferase (ALT), Aspartate aminotransferase (AST), Calcium (CA), Magnesium (Mg), Phosphorous (P), Globulin (GLOB), Electrolytes (Sodium (Na), Potassium (K), Chloride (Cl)), Gamma glutamyltransferase (GGT), Total bilirubin (TBILI), Amylase (AMY), Lipase (LIP), Osmolality, Triglycerides (TRIG), Total cholesterol (CHOL), Urea nitrogen (BUN), Creatinine (CREAT), Glucose (GLU), Total protein (TP), and Creatinine kinase (CPK).
Histopathologic evaluation was performed on kidneys. Kidneys from all surviving animals were examined microscopically by a board certified veterinary pathologist and observations were entered into a computer-assisted data retrieval system. Kidney sections were stained with Masson's Trichrome, or Hematoxylin and Eosin. To maintain blinding of the analysis, slides were labeled with the animal number with no reference to treatment group.
Kidneys were scored according to the following system (developed by Chan O, Madaio M P, Shlomchik M J. The roles of B cells in MRL/lpr murine lupus. Annals New York Academy of Sciences, 1997; 815:75-82), modified to suit the lesion severity.
• 0=Normal. • 1=Focal or multifocal, minimal to mild, early proliferative. • 2=Multifocal mild to moderate or mild diffuse proliferative. • 3=Diffuse moderate proliferative with or without multifocal severe areas. • 4=Marked diffuse proliferative, with crescents/sclerosis, multifocal protein casts present. • 5=Severe diffuse proliferative, with crescents/sclerosis, diffuse protein casts present. […]

The structures appear in SMILES notation. pEC50, pIC50: −log10 of the molar value.

T1 sequence (P42338 whole entry): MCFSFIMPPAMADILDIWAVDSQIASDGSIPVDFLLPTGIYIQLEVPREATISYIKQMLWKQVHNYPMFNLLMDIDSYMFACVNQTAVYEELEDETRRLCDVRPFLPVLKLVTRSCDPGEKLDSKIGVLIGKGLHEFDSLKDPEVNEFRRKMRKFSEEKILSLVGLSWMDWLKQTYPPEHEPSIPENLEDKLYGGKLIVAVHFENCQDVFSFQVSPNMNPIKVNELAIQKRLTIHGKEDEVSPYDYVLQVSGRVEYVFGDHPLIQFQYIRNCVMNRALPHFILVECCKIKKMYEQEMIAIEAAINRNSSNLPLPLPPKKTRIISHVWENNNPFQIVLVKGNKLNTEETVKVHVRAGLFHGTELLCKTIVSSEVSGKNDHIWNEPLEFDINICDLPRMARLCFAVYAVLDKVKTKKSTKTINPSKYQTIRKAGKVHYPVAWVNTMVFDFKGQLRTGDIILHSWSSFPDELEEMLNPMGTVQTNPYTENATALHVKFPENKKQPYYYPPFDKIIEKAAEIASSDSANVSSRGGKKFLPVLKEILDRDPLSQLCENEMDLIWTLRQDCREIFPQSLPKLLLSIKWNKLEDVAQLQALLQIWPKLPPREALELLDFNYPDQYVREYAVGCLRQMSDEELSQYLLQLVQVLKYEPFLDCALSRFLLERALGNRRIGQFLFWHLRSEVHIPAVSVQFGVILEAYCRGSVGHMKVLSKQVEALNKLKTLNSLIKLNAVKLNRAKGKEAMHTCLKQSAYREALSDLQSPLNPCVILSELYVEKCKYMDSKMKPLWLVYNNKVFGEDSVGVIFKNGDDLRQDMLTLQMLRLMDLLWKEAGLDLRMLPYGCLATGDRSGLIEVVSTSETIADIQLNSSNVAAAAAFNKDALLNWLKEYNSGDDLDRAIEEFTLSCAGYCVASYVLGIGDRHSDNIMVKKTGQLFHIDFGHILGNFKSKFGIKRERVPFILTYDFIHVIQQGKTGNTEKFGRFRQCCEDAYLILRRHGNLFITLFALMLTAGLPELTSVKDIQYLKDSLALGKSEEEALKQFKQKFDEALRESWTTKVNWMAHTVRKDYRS
T1 sequence (P27986 whole entry partner): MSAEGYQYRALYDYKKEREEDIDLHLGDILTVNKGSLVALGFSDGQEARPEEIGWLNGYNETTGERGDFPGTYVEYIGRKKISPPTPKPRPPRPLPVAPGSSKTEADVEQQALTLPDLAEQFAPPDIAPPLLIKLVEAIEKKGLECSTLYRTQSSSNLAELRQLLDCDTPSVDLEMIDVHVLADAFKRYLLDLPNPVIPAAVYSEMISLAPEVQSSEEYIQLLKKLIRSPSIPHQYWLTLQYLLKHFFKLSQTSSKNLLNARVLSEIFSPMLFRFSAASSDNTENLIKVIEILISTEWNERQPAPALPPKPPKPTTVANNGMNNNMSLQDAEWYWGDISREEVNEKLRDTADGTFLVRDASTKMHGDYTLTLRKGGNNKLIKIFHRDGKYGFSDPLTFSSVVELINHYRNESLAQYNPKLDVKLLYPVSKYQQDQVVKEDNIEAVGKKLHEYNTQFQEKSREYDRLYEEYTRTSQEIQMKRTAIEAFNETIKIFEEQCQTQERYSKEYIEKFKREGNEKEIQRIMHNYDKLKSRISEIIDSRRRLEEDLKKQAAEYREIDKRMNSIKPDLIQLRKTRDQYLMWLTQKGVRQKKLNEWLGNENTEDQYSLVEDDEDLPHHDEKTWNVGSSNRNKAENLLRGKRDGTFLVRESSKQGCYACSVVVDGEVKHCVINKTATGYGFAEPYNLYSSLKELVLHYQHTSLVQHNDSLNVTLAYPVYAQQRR
T3 sequence (P42336 whole entry): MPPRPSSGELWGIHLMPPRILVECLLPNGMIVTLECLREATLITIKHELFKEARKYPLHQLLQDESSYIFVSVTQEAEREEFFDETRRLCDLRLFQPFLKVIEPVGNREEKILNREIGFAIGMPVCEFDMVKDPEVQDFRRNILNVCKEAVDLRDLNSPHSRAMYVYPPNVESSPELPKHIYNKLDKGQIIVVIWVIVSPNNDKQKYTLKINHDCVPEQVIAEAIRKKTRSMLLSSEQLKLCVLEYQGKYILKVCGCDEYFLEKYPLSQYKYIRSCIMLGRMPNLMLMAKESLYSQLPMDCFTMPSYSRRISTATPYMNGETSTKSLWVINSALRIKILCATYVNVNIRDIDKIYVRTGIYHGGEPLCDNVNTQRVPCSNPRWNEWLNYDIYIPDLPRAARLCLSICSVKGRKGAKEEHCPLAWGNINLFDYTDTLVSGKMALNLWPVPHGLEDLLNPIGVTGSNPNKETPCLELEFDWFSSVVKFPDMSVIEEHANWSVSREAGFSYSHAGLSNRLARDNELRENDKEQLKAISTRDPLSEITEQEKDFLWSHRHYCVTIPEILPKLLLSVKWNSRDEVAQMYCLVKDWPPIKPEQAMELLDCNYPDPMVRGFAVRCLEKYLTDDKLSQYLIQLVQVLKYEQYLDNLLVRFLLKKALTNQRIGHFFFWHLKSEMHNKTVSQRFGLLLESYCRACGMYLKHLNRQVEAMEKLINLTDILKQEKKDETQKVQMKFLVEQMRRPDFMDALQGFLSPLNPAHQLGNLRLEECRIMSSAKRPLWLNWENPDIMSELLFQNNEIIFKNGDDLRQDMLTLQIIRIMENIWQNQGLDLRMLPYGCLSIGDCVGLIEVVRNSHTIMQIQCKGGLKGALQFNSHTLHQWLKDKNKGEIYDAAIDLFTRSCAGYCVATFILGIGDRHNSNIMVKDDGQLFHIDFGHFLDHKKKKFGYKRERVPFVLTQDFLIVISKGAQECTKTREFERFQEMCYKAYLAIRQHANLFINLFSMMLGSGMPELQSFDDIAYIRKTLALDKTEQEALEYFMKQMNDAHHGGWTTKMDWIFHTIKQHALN
T3 sequence (P27986 whole entry partner): as the sequence (P27986 whole entry partner) above
T2 sequence (P48736 whole entry): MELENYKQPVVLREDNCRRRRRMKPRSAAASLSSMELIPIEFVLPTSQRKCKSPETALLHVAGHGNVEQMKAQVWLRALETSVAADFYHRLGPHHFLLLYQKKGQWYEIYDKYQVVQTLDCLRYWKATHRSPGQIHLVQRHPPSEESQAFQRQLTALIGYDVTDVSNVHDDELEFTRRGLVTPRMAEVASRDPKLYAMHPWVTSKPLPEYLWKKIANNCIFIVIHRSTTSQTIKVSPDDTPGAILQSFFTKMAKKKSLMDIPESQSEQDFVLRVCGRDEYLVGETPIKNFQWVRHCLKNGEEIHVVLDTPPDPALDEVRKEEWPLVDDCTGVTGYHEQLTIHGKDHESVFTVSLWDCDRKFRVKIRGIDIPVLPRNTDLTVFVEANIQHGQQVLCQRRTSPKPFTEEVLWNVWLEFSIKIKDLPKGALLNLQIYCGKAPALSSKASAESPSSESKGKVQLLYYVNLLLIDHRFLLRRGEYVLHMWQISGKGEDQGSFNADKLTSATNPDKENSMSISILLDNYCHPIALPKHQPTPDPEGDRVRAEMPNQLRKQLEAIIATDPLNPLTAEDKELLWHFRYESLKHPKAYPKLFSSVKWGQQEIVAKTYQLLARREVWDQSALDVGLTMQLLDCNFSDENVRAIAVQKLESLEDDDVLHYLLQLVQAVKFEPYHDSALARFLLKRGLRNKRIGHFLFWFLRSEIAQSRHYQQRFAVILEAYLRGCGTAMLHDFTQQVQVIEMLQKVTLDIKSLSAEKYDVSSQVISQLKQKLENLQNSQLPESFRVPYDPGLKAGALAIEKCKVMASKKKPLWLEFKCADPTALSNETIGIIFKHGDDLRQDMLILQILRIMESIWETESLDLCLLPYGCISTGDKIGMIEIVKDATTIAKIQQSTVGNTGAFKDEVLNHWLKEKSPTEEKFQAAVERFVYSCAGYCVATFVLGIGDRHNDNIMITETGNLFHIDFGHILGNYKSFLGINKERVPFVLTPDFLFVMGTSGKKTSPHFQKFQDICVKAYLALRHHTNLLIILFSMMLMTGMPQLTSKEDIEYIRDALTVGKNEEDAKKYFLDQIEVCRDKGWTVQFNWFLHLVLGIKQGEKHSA

For the molecule `CCCCCCCCc1ccc(CCC(N)(CO)CO)cc1` [FTY720, reference compound], in the test with mouse EAE model, the “MMS +/− SD” value is listed as 1.65 +/− 1.23 and the “Median Day of Onset” value is on record as 11.5 days. In addition, the “End % body weight +/− SD” value in the test with mouse EAE model (Day 27 relative to Day −1) is reported as 110.0 +/− 7.4%. The “End score +/− SD” value in the test with mouse EAE model (Day 28) is 0.45 +/− 0.44. The “Inflammatory foci +/− SD” value with mouse EAE model (per spinal cord section) is 0.3 +/− 0.4. The “Demyelination (LFB) +/− SD” value in the test on mouse EAE model (score per section) is recorded as 0.3 +/− 0.3.
By pIC50 is commonly meant the IC50 on a negative log10 scale, so that one unit is a factor of ten. Read a low pIC50 as a high IC50. Broadly, the pEC50 is the negative decadic logarithm of the EC50, by convention in mol/L. Read a high pEC50 as a small EC50. The molecule `Cc1ccccc1-n1c(Cn2nc(-c3cc(O)cc(F)c3)c3c(N)ncnc32)cc2cccc(C)c2c1=O` [Compound 8] had a pIC50 against PI3K β below 5.00. The pEC50 in the test with B cell proliferation is above 6.00.
Regarding `Cc1cccc2cc(Cn3nc(C#CCO)c4c(N)ncnc43)n(-c3ccccc3F)c(=O)c12` [Compound 7], the figures for the negative logarithm of the IC50 (pIC50) at PI3K γ, against PI3K α and at PI3K β were above 7.00, above 5.00 and above 6.00, respectively. The molecule also gave a pEC50 with B cell proliferation above 7.00.
With `C[C@@H]1C[C@H]2[C@@H]3CCC4=CC(=O)C=C[C@]4(C)[C@@]3(F)[C@@H](O)C[C@]2(C)[C@@]1(O)C(=O)CO` [Dex, dexamethasone, reference compound], in the test on NZBWF1/J mice (kidney histopathology), the Glomerulonephritis score reduction is listed as 91%. Besides, in the test on NZBWF1/J mice, the “Interstitial nephritis score reduction” value came to 95%, the Kidney weight increase was determined as 20%, the “Perivascular inflammation score reduction” value came out at 100% and the Spleen weight reduction is reported as 76%. Besides, in the test on NZBWF1/J mice, the “Summed histopathology scores reduction” value came out at 88%.
In the test with B cell proliferation, `Cc1ccccc1-n1c(Cn2nc(I)c3c(N)ncnc32)cc2cccc(C)c2c1=O` [Compound 6] gave a pEC50 above 7.00.
